# ChEMBL document CHEMBL1151433, “National and regional assessment of antimicrobial resistance among community-acquired respiratory tract pathogens identified in a 2005-2006 U.S. Faropenem surveillance study” (2007)
# Key:
# Streptococcus pneumoniae [1] = assay: Antibacterial activity against Streptococcus pneumoniae ATCC 49619 isolated from respiratory tract infected male patients after 20 to 24 hrs by broth microdilution method; format: functional
# Streptococcus pneumoniae [2] = assay: Antibacterial activity against Streptococcus pneumoniae ATCC 49619 isolated from respiratory tract infected outpatients after 20 to 24 hrs by broth microdilution method; format: functional
# Streptococcus pneumoniae [3] = assay: Antibacterial activity against Streptococcus pneumoniae ATCC 49619 isolated from respiratory tract infected patients with 15 to 64 years of age after 20 to 24 hrs by broth microdilution method; format: functional
# Streptococcus pneumoniae [4] = assay: Antibacterial activity against Streptococcus pneumoniae ATCC 49619 isolated from respiratory tract infected female patients after 20 to 24 hrs by broth microdilution method; format: functional
# Streptococcus pneumoniae [5] = assay: Antibacterial activity against Streptococcus pneumoniae ATCC 49619 isolated from respiratory tract infected inpatients after 20 to 24 hrs by broth microdilution method; format: functional
# Streptococcus pneumoniae [6] = assay: Antibacterial activity against penicillin-intermediate Streptococcus pneumoniae ATCC 49619 isolated from respiratory tract infected patients after 20 to 24 hrs by broth microdilution method; format: functional
# Streptococcus pneumoniae [7] = assay: Antibacterial activity against Streptococcus pneumoniae ATCC 49619 isolated from respiratory tract infected patients with 6 to 14 years of age after 20 to 24 hrs by broth microdilution method; format: functional
# Streptococcus pneumoniae [8] = assay: Antibacterial activity against Streptococcus pneumoniae ATCC 49619 isolated from respiratory tract infected patients more than 65 years of age after 20 to 24 hrs by broth microdilution method; format: functional
# Streptococcus pneumoniae [9] = assay: Antibacterial activity against Streptococcus pneumoniae ATCC 49619 isolated from respiratory tract infected patients with 3 to 5 years of age after 20 to 24 hrs by broth microdilution method; format: functional
# Streptococcus pneumoniae [10] = assay: Antibacterial activity against Streptococcus pneumoniae ATCC 49619 isolated from respiratory tract infected patients within 2 years of age after 20 to 24 hrs by broth microdilution method; format: functional
# Streptococcus pneumoniae [11] = assay: Antibacterial activity against penicillin-resistant Streptococcus pneumoniae ATCC 49619 isolated from respiratory tract infected patients after 20 to 24 hrs by broth microdilution method; format: functional
# Streptococcus pneumoniae [12] = assay: Antibacterial activity against Streptococcus pneumoniae ATCC 49619 isolated from respiratory tract infected patients after 20 to 24 hrs by broth microdilution method; format: functional
# Moraxella catarrhalis = assay: Antibacterial activity against Moraxella catarrhalis isolated from respiratory tract infected patients after 20 to 24 hrs by broth microdilution method; format: functional
# Streptococcus pneumoniae [13] = assay: Antibacterial activity against penicillin-susceptible Streptococcus pneumoniae ATCC 49619 isolated from respiratory tract infected patients after 20 to 24 hrs by broth microdilution method; format: functional
# Haemophilus influenzae [14] = assay: Antibacterial activity against Haemophilus influenzae […] isolated from respiratory tract infected patients after 20 to 24 hrs by broth microdilution method; format: functional; conditions: ATCC 49247
# Haemophilus influenzae [15] = assay: Antibacterial activity against beta lactamase-negative Haemophilus influenzae […] isolated from respiratory tract infected patients assessed as susceptible isolates after 20 to 24 hrs by broth microdilution method; format: functional
# Streptococcus pneumoniae [16] = assay: Antibacterial activity against penicillin-susceptible Streptococcus pneumoniae ATCC 49619 isolated from respiratory tract infected patients assessed as resistant isolates after 20 to 24 hrs by broth microdilution method; format: functional
# Streptococcus pneumoniae [17] = assay: Antibacterial activity against Streptococcus pneumoniae ATCC 49619 isolated from respiratory tract infected patients more than 65 years of age assessed as resistant isolates after 20 to 24 hrs by broth microdilution method; format: functional
# Haemophilus influenzae [18] = assay: Antibacterial activity against beta lactamase-negative Haemophilus influenzae […] isolated from respiratory tract infected patients after 20 to 24 hrs by broth microdilution method; format: functional; conditions: ATCC 49247
# Streptococcus pneumoniae [19] = assay: Antibacterial activity against Streptococcus pneumoniae ATCC 49619 isolated from respiratory tract infected male patients assessed as resistant isolates after 20 to 24 hrs by broth microdilution method; format: functional
# Haemophilus influenzae [20] = assay: Antibacterial activity against beta lactamase-positive Haemophilus influenzae […] isolated from respiratory tract infected patients assessed as susceptible isolates after 20 to 24 hrs by broth microdilution method; format: functional, ATCC 49247
# Streptococcus pneumoniae [21] = assay: Antibacterial activity against Streptococcus pneumoniae ATCC 49619 isolated from respiratory tract infected patients with 6 to 14 years of age assessed as resistant isolates after 20 to 24 hrs by broth microdilution method; format: functional
# Streptococcus pneumoniae [22] = assay: Antibacterial activity against Streptococcus pneumoniae ATCC 49619 isolated from respiratory tract infected female patients assessed as resistant isolates after 20 to 24 hrs by broth microdilution method; format: functional
# Streptococcus pneumoniae [23] = assay: Antibacterial activity against Streptococcus pneumoniae ATCC 49619 isolated from respiratory tract infected patients assessed as resistant isolates after 20 to 24 hrs by broth microdilution method; format: functional
# Streptococcus pneumoniae [24] = assay: Antibacterial activity against penicillin-susceptible Streptococcus pneumoniae ATCC 49619 isolated from respiratory tract infected patients assessed as susceptible isolates after 20 to 24 hrs by broth microdilution method; format: functional
# Haemophilus influenzae [25] = assay: Antibacterial activity against Haemophilus influenzae […] isolated from respiratory tract infected patients assessed as susceptible isolates after 20 to 24 hrs by broth microdilution method; format: functional, ATCC 49247
# Streptococcus pneumoniae [26] = assay: Antibacterial activity against penicillin-resistant Streptococcus pneumoniae ATCC 49619 isolated from respiratory tract infected patients assessed as resistant isolates after 20 to 24 hrs by broth microdilution method; format: functional
# Streptococcus pneumoniae [27] = assay: Antibacterial activity against penicillin-intermediate Streptococcus pneumoniae ATCC 49619 isolated from respiratory tract infected patients assessed as resistant isolates after 20 to 24 hrs by broth microdilution method; format: functional
# Streptococcus pneumoniae [28] = assay: Antibacterial activity against Streptococcus pneumoniae ATCC 49619 isolated from respiratory tract infected outpatients assessed as resistant isolates after 20 to 24 hrs by broth microdilution method; format: functional
# Streptococcus pneumoniae [29] = assay: Antibacterial activity against Streptococcus pneumoniae ATCC 49619 isolated from respiratory tract infected inpatients assessed as resistant isolates after 20 to 24 hrs by broth microdilution method; format: functional
# Haemophilus influenzae [30] = assay: Antibacterial activity against beta lactamase-positive Haemophilus influenzae […] isolated from respiratory tract infected patients after 20 to 24 hrs by broth microdilution method; format: functional; conditions: ATCC 49247
# Streptococcus pneumoniae [31] = assay: Antibacterial activity against Streptococcus pneumoniae ATCC 49619 isolated from respiratory tract infected patients with 3 to 5 years of age assessed as resistant isolates after 20 to 24 hrs by broth microdilution method; format: functional
# Streptococcus pneumoniae [32] = assay: Antibacterial activity against Streptococcus pneumoniae ATCC 49619 isolated from respiratory tract infected patients within 2 years of age assessed as resistant isolates after 20 to 24 hrs by broth microdilution method; format: functional
# Streptococcus pneumoniae [33] = assay: Antibacterial activity against Streptococcus pneumoniae ATCC 49619 isolated from respiratory tract infected patients assessed as susceptible isolates after 20 to 24 hrs by broth microdilution method; format: functional
# Streptococcus pneumoniae [34] = assay: Antibacterial activity against Streptococcus pneumoniae ATCC 49619 isolated from respiratory tract infected patients with 15 to 64 years of age assessed as resistant isolates after 20 to 24 hrs by broth microdilution method; format: functional
# Streptococcus pneumoniae [35] = assay: Antibacterial activity against penicillin-resistant Streptococcus pneumoniae ATCC 49619 isolated from respiratory tract infected patients assessed as susceptible isolates after 20 to 24 hrs by broth microdilution method; format: functional
# Streptococcus pneumoniae [36] = assay: Antibacterial activity against penicillin-intermediate Streptococcus pneumoniae ATCC 49619 isolated from respiratory tract infected patients assessed as susceptible isolates after 20 to 24 hrs by broth microdilution method; format: functional
smiles,measurement,setting,value
C[C@@H](O)[C@H]1C(=O)N2C(C(=O)O)=C([C@H]3CCCO3)S[C@H]12 [FAROPENEM],MIC90,Streptococcus pneumoniae [1],0.5 µg/mL
same,MIC90,Streptococcus pneumoniae [2],0.5 µg/mL
same,MIC90,Streptococcus pneumoniae [3],0.5 µg/mL
same,MIC90,Streptococcus pneumoniae [4],0.5 µg/mL
same,MIC90,Streptococcus pneumoniae [5],0.5 µg/mL
same,MIC50,Streptococcus pneumoniae [6],0.06 µg/mL
same,MIC90,Streptococcus pneumoniae [6],0.25 µg/mL
same,MIC90,Streptococcus pneumoniae [7],0.5 µg/mL
same,MIC90,Streptococcus pneumoniae [8],0.5 µg/mL
same,MIC90,Streptococcus pneumoniae [9],1 µg/mL
same,MIC90,Streptococcus pneumoniae [10],1 µg/mL
same,MIC50,Streptococcus pneumoniae [11],1 µg/mL
same,MIC90,Streptococcus pneumoniae [11],2 µg/mL
same,MIC50,Streptococcus pneumoniae [12],0.015 µg/mL
same,MIC90,Streptococcus pneumoniae [12],0.5 µg/mL
same,MIC50,Moraxella catarrhalis,0.25 µg/mL
same,MIC90,Moraxella catarrhalis,0.5 µg/mL
same,MIC50,Streptococcus pneumoniae [13],0.008 µg/mL
same,MIC90,Streptococcus pneumoniae [13],0.015 µg/mL
C[C@H]1COc2c(N3CCN(C)CC3)c(F)cc3c(=O)c(C(=O)O)cn1c23.C[C@H]1COc2c(N3CCN(C)CC3)c(F)cc3c(=O)c(C(=O)O)cn1c23.O [LEVOFLOXACIN],MIC50,Haemophilus influenzae [14],≤ 0.06 µg/mL
same,MIC90,Haemophilus influenzae [14],≤ 0.06 µg/mL
same,Activity,Haemophilus influenzae [15],99.7%
same,Activity,Streptococcus pneumoniae [16],0.2%
same,MIC90,Streptococcus pneumoniae [1],1 µg/mL
same,Activity,Streptococcus pneumoniae [17],1.4%
same,MIC50,Haemophilus influenzae [18],≤ 0.06 µg/mL
same,MIC90,Haemophilus influenzae [18],≤ 0.06 µg/mL
same,MIC90,Streptococcus pneumoniae [2],1 µg/mL
same,Activity,Streptococcus pneumoniae [19],0.8%
same,MIC90,Streptococcus pneumoniae [3],1 µg/mL
same,Activity,Haemophilus influenzae [20],100%
same,Activity,Streptococcus pneumoniae [21],0%
same,Activity,Streptococcus pneumoniae [22],0.3%
same,MIC90,Streptococcus pneumoniae [4],1 µg/mL
same,MIC90,Streptococcus pneumoniae [5],1 µg/mL
same,MIC50,Streptococcus pneumoniae [6],1 µg/mL
same,MIC90,Streptococcus pneumoniae [6],1 µg/mL
same,Activity,Streptococcus pneumoniae [23],0.6%
same,Activity,Streptococcus pneumoniae [24],99.7%
same,MIC90,Streptococcus pneumoniae [7],1 µg/mL
same,Activity,Haemophilus influenzae [25],99.9%
same,Activity,Streptococcus pneumoniae [26],1.6%
same,Activity,Streptococcus pneumoniae [27],0.9%
same,MIC90,Streptococcus pneumoniae [8],1 µg/mL
same,Activity,Streptococcus pneumoniae [28],0.9%
same,Activity,Streptococcus pneumoniae [29],0.1%
same,MIC50,Haemophilus influenzae [30],≤ 0.06 µg/mL
same,MIC90,Haemophilus influenzae [30],≤ 0.06 µg/mL
same,MIC90,Streptococcus pneumoniae [9],1 µg/mL
same,Activity,Streptococcus pneumoniae [31],0%
same,MIC90,Streptococcus pneumoniae [10],1 µg/mL
same,MIC50,Streptococcus pneumoniae [11],1 µg/mL
same,MIC90,Streptococcus pneumoniae [11],1 µg/mL
same,Activity,Streptococcus pneumoniae [32],0%
same,MIC50,Streptococcus pneumoniae [12],1 µg/mL
same,MIC90,Streptococcus pneumoniae [12],1 µg/mL
same,MIC50,Moraxella catarrhalis,≤ 0.06 µg/mL
same,MIC90,Moraxella catarrhalis,≤ 0.06 µg/mL
same,MIC50,Streptococcus pneumoniae [13],1 µg/mL
same,MIC90,Streptococcus pneumoniae [13],1 µg/mL
same,Activity,Streptococcus pneumoniae [33],99.2%
same,Activity,Streptococcus pneumoniae [34],0.4%
same,Activity,Streptococcus pneumoniae [35],98%
same,Activity,Streptococcus pneumoniae [36],98.8%
